From the kinase profiling compilation of Christmann-Franck et al. (2016)

Legend:
Assay in all cases: radiometric filter-binding kinase assay, Kinase HotSpot
Settings in all cases: compound 0.5 µM; ATP 10 µM
[1] = biological target: ACVRL1 (human) (UniProt P37023)
[2] = biological target: AKT1 (human) (UniProt P31749)
[3] = biological target: ALK (human) (UniProt Q9UM73)
[4] = biological target: CAMK1 (human) (UniProt Q14012)
[5] = biological target: CAMK4 (human) (UniProt Q16566)
[6] = biological target: CDC42BPB (human) (UniProt Q9Y5S2)
[7] = biological target: CDK2 CCNA2 (human) (UniProt P24941+P20248)
[8] = biological target: CHEK2 (human) (UniProt O96017)
[9] = biological target: CSNK1G1 (human) (UniProt Q9HCP0)
[10] = biological target: CSNK2A1 (human) (UniProt P68400)
Sequence of CSNK2A1 (human) (P68400 whole entry, looked up): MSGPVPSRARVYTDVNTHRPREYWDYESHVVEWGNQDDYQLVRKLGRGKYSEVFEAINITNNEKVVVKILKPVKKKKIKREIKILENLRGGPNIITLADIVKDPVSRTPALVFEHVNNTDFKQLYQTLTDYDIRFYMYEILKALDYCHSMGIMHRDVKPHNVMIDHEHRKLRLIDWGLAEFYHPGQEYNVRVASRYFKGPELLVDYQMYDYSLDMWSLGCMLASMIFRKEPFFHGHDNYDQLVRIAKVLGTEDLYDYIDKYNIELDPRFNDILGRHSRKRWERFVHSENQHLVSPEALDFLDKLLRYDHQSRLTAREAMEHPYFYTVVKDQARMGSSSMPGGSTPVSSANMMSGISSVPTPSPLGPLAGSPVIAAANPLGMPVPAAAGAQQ

[11] = biological target: DCLK2 (human) (UniProt Q8N568)
Sequence of DCLK2 (human) (Q8N568 whole entry, looked up): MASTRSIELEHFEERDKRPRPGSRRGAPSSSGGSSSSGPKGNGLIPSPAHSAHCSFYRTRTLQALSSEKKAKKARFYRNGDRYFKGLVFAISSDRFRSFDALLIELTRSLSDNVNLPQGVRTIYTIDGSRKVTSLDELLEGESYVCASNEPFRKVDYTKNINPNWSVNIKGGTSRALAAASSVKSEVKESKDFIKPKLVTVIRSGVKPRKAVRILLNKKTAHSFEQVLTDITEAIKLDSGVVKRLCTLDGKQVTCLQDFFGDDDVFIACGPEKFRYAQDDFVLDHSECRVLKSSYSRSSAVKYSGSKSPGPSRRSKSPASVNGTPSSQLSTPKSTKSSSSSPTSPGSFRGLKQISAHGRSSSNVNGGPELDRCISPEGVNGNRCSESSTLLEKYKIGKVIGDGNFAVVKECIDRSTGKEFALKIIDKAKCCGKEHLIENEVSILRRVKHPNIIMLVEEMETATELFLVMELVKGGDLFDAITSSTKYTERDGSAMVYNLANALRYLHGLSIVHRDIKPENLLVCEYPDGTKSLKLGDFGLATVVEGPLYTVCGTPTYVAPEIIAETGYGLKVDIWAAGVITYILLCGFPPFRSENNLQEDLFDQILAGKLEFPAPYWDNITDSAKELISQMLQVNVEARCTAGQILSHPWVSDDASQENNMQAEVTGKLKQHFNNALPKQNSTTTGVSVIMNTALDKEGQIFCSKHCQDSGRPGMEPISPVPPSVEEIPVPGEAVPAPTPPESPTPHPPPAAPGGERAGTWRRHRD

[12] = biological target: DYRK1B (human) (UniProt Q9Y463)
Sequence of DYRK1B (human) (Q9Y463 whole entry, looked up): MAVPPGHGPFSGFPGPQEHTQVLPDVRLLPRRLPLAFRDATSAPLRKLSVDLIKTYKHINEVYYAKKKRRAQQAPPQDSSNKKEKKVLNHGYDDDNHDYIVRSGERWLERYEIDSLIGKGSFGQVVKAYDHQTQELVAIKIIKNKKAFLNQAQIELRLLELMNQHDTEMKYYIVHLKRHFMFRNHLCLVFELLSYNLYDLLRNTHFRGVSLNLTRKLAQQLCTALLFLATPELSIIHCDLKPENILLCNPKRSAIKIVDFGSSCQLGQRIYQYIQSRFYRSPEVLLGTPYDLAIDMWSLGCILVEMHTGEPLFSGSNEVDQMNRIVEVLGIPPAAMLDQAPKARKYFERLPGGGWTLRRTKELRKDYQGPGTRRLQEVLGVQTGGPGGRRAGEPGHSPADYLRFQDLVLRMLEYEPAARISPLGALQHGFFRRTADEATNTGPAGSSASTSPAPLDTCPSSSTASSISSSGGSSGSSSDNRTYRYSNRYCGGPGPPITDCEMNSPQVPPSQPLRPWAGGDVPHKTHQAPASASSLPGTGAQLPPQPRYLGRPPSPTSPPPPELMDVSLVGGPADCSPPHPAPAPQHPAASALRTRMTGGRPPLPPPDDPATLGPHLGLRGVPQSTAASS

[13] = biological target: DYRK3 (human) (UniProt O43781)
[14] = biological target: EPHA2 (human) (UniProt P29317)
Sequence of EPHA2 (human) (P29317 whole entry, looked up): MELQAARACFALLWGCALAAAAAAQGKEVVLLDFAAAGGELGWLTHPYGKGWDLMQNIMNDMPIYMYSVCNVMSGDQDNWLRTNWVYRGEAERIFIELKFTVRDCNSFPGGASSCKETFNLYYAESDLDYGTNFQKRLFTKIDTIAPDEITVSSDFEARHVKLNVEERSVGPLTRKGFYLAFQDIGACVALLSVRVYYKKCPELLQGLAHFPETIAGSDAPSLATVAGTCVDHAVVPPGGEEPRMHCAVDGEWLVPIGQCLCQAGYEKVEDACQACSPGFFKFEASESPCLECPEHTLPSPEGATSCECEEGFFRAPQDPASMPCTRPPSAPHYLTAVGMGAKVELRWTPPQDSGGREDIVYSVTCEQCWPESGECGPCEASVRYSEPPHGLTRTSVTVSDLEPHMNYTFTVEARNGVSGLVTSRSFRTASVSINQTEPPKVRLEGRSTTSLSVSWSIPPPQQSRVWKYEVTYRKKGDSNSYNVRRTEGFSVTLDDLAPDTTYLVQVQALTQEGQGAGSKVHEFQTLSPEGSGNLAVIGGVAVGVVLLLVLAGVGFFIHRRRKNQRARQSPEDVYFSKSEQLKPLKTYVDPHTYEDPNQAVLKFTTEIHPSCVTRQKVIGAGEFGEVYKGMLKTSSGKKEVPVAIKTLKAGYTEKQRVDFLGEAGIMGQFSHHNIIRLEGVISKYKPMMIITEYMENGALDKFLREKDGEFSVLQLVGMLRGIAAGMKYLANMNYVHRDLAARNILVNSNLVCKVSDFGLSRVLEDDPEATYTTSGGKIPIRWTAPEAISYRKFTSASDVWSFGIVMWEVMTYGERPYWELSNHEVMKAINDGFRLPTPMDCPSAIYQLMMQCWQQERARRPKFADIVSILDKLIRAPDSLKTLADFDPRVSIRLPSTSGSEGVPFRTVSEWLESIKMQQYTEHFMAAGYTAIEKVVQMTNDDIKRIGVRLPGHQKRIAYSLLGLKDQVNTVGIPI

[15] = biological target: EPHA4 (human) (UniProt P54764)
[16] = biological target: FGFR4 (human) (UniProt P22455)
[17] = biological target: HIPK4 (human) (UniProt Q8NE63)
[18] = biological target: JAK1 JH1 catalytic (human) (UniProt P23458)
[19] = biological target: MAP3K3 (human) (UniProt Q99759)
[20] = biological target: MAP3K8 (human) (UniProt P41279)
[21] = biological target: MAP4K5 (human) (UniProt Q9Y4K4)
[22] = biological target: MAPK11 (human) (UniProt Q15759)
Sequence of MAPK11 (human) (Q15759 whole entry, looked up): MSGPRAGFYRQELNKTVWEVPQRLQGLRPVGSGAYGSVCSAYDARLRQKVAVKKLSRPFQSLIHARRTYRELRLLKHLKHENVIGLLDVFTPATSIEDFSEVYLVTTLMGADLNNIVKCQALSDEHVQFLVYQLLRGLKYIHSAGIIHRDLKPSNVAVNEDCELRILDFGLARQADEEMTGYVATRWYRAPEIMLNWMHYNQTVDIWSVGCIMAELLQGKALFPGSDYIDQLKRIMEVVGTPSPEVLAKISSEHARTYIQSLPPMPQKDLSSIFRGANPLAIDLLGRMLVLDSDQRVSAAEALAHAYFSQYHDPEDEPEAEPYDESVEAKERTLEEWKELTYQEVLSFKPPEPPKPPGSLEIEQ

[23] = biological target: MAPK12 (human) (UniProt P53778)
[24] = biological target: MET (human) (UniProt P08581)
[25] = biological target: NLK (human) (UniProt Q9UBE8)
Sequence of NLK (human) (Q9UBE8 whole entry, looked up): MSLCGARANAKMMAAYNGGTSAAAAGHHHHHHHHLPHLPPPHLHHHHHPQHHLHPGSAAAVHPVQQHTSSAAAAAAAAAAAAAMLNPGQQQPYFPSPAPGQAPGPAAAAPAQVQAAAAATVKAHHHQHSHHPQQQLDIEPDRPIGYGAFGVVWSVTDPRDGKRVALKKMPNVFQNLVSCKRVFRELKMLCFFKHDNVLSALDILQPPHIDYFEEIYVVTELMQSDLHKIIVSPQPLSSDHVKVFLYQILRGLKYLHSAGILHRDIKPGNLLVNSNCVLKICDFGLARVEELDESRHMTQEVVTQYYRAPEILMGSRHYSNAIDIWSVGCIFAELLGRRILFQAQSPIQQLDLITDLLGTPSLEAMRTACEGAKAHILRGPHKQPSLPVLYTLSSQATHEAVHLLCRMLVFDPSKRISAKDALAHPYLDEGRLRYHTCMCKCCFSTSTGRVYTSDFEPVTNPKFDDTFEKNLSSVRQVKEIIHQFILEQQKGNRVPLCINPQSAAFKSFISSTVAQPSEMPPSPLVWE

[26] = biological target: PAK2 (human) (UniProt Q13177)
Sequence of PAK2 (human) (Q13177 whole entry, looked up): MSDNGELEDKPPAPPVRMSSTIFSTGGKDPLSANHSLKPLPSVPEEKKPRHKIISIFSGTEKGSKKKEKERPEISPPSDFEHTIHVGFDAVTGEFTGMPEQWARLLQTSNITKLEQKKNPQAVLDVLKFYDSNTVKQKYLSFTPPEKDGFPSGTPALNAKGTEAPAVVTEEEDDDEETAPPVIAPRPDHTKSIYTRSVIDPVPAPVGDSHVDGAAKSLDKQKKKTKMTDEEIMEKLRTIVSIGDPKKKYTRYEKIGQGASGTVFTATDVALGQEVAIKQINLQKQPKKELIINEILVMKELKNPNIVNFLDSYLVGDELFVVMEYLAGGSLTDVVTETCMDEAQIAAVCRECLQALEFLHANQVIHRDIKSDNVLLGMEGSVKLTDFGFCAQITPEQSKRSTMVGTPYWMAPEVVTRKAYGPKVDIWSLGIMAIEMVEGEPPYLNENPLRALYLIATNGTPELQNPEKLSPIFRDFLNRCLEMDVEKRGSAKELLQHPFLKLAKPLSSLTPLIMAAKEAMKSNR

[27] = biological target: PHKG2 (human) (UniProt P15735)
[28] = biological target: PIM1 (human) (UniProt P11309)
[29] = biological target: PRKACG (human) (UniProt P22612)
[30] = biological target: PRKCB1 (human) (UniProt P05771)
[31] = biological target: PRKD1 (human) (UniProt Q15139)
[32] = biological target: PRKX (human) (UniProt P51817)
Sequence of PRKX (human) (P51817 whole entry, looked up): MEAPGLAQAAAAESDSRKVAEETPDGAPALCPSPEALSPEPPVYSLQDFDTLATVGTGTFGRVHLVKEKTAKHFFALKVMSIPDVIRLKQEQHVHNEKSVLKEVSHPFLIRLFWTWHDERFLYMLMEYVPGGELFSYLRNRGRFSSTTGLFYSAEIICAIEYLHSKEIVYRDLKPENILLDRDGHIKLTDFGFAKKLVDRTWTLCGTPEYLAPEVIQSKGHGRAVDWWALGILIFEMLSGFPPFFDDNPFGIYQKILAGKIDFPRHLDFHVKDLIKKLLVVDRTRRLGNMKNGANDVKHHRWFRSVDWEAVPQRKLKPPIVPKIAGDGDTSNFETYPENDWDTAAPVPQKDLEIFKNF

[33] = biological target: RPS6KA1 KD1 KD2 (human) (UniProt Q15418)
[34] = biological target: RPS6KA2 KD1 KD2 (human) (UniProt Q15349)
[35] = biological target: RPS6KA5 KD2 (human) (UniProt O75582)
[36] = biological target: SGK2 (human) (UniProt Q9HBY8)
[37] = biological target: STK17A (human) (UniProt Q9UEE5)
[38] = biological target: TEK (human) (UniProt Q02763)
[39] = biological target: TNK2 (human) (UniProt Q07912)
[40] = biological target: TXK (human) (UniProt P42681)
[41] = biological target: ULK2 (human) (UniProt Q8IYT8)
[42] = biological target: WNK3 (human) (UniProt Q9BYP7)

Sequence of CAMK4 (human) (Q16566 whole entry, looked up): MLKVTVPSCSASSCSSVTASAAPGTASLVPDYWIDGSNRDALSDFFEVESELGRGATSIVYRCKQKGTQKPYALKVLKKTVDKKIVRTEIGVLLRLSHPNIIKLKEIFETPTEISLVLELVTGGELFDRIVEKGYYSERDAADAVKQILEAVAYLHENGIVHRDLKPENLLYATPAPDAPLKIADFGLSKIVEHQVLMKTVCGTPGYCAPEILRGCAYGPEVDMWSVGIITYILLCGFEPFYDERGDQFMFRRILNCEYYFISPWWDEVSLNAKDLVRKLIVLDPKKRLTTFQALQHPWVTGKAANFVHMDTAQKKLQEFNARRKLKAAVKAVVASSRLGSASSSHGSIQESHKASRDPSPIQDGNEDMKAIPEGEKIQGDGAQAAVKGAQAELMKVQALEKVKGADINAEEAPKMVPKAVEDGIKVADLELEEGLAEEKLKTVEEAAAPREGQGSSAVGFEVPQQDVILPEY

Nc1ccc2ncnc(NCCc3ccc(Oc4ccccc4)cc3)c2c1
residual activity [1]: 93.5% | residual activity [2]: 98.2% | residual activity [3]: 108% | residual activity [4]: 107% | residual activity [5]: 98.9% | residual activity [6]: 105% | residual activity [7]: 95.8% | residual activity [8]: 91.7% | residual activity [9]: 97.6% | residual activity [10]: 95.2% | residual activity [11]: 99.1% | residual activity [12]: 104% | residual activity [13]: 89.6% | residual activity [14]: 103% | residual activity [15]: 98.5% | residual activity [16]: 104% | residual activity [17]: 97.4% | residual activity [18]: 94.6% | residual activity [19]: 106% | residual activity [20]: 97.2% | residual activity [21]: 94.8% | residual activity [22]: 98.1% | residual activity [23]: 93.6% | residual activity [24]: 99.9% | residual activity [25]: 104% | residual activity [26]: 102% | residual activity [27]: 98.7% | residual activity [28]: 102% | residual activity [29]: 110% | residual activity [30]: 96.3% | residual activity [31]: 99.3% | residual activity [32]: 104% | residual activity [33]: 108% | residual activity [34]: 100% | residual activity [35]: 98.3% | residual activity [36]: 99.6% | residual activity [37]: 96.9% | residual activity [38]: 99% | residual activity [39]: 102% | residual activity [40]: 102% | residual activity [41]: 103% | residual activity [42]: 114%
